Laboratory results as given in patent US9598406B2, “Quinazolinone derivatives for use in the treatment of chlamydiales infections” (Commissariat a l'Energie Atomique et aux Energies …, priority 2015, dated 2017).

Legend:
Assay type in all cases: cell-based
[1] = system: Chlamydia trachomatis (Ctr) strain L2/434/Bu; test: Chlamydia trachomatis progeny infection of HeLa229 cells, cellular protection by compounds at 25 μM (GFP-signal, Image J quantification); conditions: HeLa229 cells pretreated 1 hour, Ctr MOI1, progeny infection fixed 48 hpi, versus solvent-treated cells
Procedure: HeLa229 (ATCC CCL-2.1). Cells were grown in RPMI1640 medium (Glutamax, 10% FBS, w/o HEPES) (Invitrogen).
Chlamydia trachomatis (Ctr). Laboratory-adapted strain L2/434/Bu (ATCC VR902B) was used in assays. Full biological and genetic information is available for this strain including complete genome sequence and defined proteome. This strain has a relatively low particle to infectivity ratio, perform efficient cell infection and has a higher viability than standard genital tract isolates with faster developmental cycle. Culture conditions have been described in (Wang Y., Kahane S., Cutcliffe L. T., Skilton R. J., Lambden P. R., Clarke I. N. Development of a transformation system for Chlamydia trachomatis: Restoration of glycogen biosynthesis by acquisition of a plasmid shuttle vector. PLoS Pathogen, 2011, 7(9):e1002258. doi: 10.1371/journal.ppat.1002258).
Compound application during Chlamydia trachomatis infection. HeLa229 cells were pretreated with Retro-2 and Retro-2 derivatives in concentrations of 25 μM for 1 hour until Chlamydia trachomatis (MOI1) were added to the cells. Compounds were present during infection. To obtain progeny infection, compound treated cells were lysed 24 h post infection (hpi) and lysate was used to infect fresh HeLa 229 cells. Infected cells of progeny infection were fixed with 4% Paraformaldehyde 48 hpi. Cells were stained for DAPI and Chlamydia trachomatis were detected by GFP-signal. Images are representative of n=2 independent experiments. Quantification of infected cells by Chlamydia trachomatis was realized from microscopy images with Image J software (FIG. 8) and cellular protection by compounds at 25 μM was then determined (Table 1) by comparison with solvent-treated cells (control) with the following equation: […]

[2] = system: Chlamydia trachomatis (Ctr) strain L2/434/Bu; test: Chlamydia trachomatis (Ctr) infectivity assays in HeLa229 cells with Retro-2 at 25, 50 and 75 μM (HSP60 immunoblot, GFP-signal)
Procedure: (§1) HeLa229 (ATCC CCL-2.1) were grown in RPMI1640 medium (Glutamax, 10% FBS, w/o HEPES) (Invitrogen). Stable HeLa229 cell lines were established to constantly label the Golgi apparatus (B4GalT1 in a pCMV6-AC-mRFP cloning vector, OriGene) and the ER (KDEL in a pDsRed2-ER expression vector).
Chlamydia trachomatis (Ctr). Laboratory-adapted strain L2/434/Bu (ATCC VR902B) was used in assays. Full biological and genetic information is available for this strain including complete genome sequence and defined proteome. This strain has a relatively low particle to infectivity ratio, perform efficient cell infection and has a higher viability than standard genital tract isolates with faster developmental cycle. […]
(A) Cells with primary infection were lysed 24 h post infection (hpi). […] Progeny infection was lysed 24 hpi and analyzed together with primary infection samples by immunoblot. Chlamydial growth was detected with antibodies against chlamydial HSP60 protein and Actin was used as loading control (FIG. 6).
(B) Infected cells were fixed with 4% Paraformaldehyde 24 hpi. Cells were stained by Alexa-680 coupled Phalloidin and Ctr were detected by GFP-signal (FIG. 7).

[3] = system: Simkania negevensis (Sn) strain Z; test: Simkania negevensis (Sn) infectivity assays in HeLa229 cells (primary and progeny infection; GroEL immunoblot, inclusion size/number, microscopy, TEM)
Procedure: as §1
Simkania negevensis (Sn) strain Z (ATCC VR-1471) was prepared as described previously (Mehlitz A, Karunakaran K, Herweg J A, Krohne G, van de Linde S, Rieck E, Sauer M, Rudel T. The chlamydial organism Sn forms ER vacuole contact sites and inhibits ER-stress. Cell Microbiol 2014; 16(8):1224-1243).
Briefly, HeLa229 cells were grown to 50-70% confluence, were inoculated with Sn in RPMI1640 with 5% FBS, for 6 h at 35° C. in a humidified incubator at 5% CO2. Medium was replaced by infection medium (RPMI1640, Glutamax, 5% FBS, w/o HEPES) and growth was allowed for 3 days. Cells were mechanically detached and bacteria were released using ˜2-5 mm glass beads (Carl Roth). Low speed supernatant (600×g, 4° C. and 5 min) was subjected to high-speed centrifugation (20,000×g, 4° C. and 30 min) to pellet bacteria. Bacteria were washed twice with 5 ml SPG (250 mM sucrose, 50 mM sodium phosphate, 5 mM glutamate, pH 7.4), aliquoted and stored at −80° C. in SPG.
40,000 HeLa cells were seeded in 12-well cluster plates, inhibitor-treated and infected as indicated in the respective experiments.
For infectivity assays cells were either fixed and stained at indicated time points (FIG. 2, 4; inclusion formation/primary infection) or bacteria were released via one freeze thaw cycle (−70° C./37° C.) followed by mechanical release through pipetting and transfer to fresh HeLa229 cells (1:25-1:50, progeny/infectivity). Cells were centrifuged for 1 h at 35° C. and medium exchanged to infection medium. […] Infectivity assays were imaged on an automated fluorescence microscope Leica DMIR (FIG. 4). Numbers and average sizes of the SCV as well as host cell numbers were determined via GroEL and DAPI staining and images were analysed and quantified using FIJI (ImageJ) and Excel (Microsoft). […]

Compound | Cellular protection at 25 μM (%) [1] | other results
Cc1nc(-c2ccc(C3Nc4ccccc4C(=O)N3c3ccccc3)s2)cs1 (centres unmarked) [Compound 25, 2-(5-(2-methylthiazol-4-yl)thiophen-2-yl)-3-phenyl-2,3-dihydroquinazolin-4(1H)-one] | 100% | –
CN1c2ccccc2C(=O)N(c2ccccc2)C1c1ccc(Br)s1 (centres unmarked) [RN-2-016, 2-(5-bromothiophen-2-yl)-1-methyl-3-phenyl-2,3-dihydroquinazolin-4(1H)-one] | 91.8% | –
Cc1ccc(C2Nc3ccccc3C(=O)N2c2ccccc2)s1 (centres unmarked) [Retro-2, 2-(5-methylthiophen-2-yl)-3-phenyl-2,3-dihydroquinazolin-4(1H)-one] | 18.1% | Ctr Hsp60 detection in the progeny infection ([2]; 75 μM of Retro-2, immunoblot, FIG. 6): almost no Ctr Hsp60 detection; Effect on Ctr development (Hsp60 western, GFP-expressing Ctr inclusions) ([2]; HeLa229 cells, Retro-2 25, 50 and 75 μM, primary infection 24 hpi): strong inhibitory effect; Concentration at which maximal inhibition of Sn replication was observed ([3]; HeLa cells, FIGS. 1-4): 75 µM; Effect on primary and progeny infection for Sn ([3]; HeLa cells, Retro-2 at 25 and 75 μM, GroEL western, inclusion size, inclusion number, microscopy): inhibitir effect on primary and progeny infection; Sn inclusions morphology (transmission electron microscopy) ([3]; infected HeLa cells, versus DMSO-treated control, FIG. 5): sub-vacuolar membranes were highly enlarged and contained excessive membrane material
Cc1nc(-c2ccc(C3N(C)c4ccccc4C(=O)N3c3ccccc3Cl)s2)cs1 (centres unmarked) [RN-3-072, 3-(2-chlorophenyl)-1-methyl-2-(5-(2-methylthiazol-4-yl)thiophen-2-yl)-2,3-dihydroquinazolin-4(1H)-one] | 100% | –
CN1c2ccccc2C(=O)N(c2ccccc2)C1c1ccc(-c2csc(-c3ccc(F)cc3)n2)s1 (centres unmarked) [VP-89, 2-(5-(2-(4-fluorophenyl)thiazol-4-yl)thiophen-2-yl)-1-methyl-3-phenyl-2,3-dihydroquinazolin-4(1H)-one] | 88.5% | –
Cc1nc(-c2ccc(C3N(C)c4ccc(F)cc4C(=O)N3c3ccccc3)s2)cs1 (centres unmarked) [Retro-2.1, 6-fluoro-1-methyl-2-(5-(2-methylthiazol-4-yl)thiophen-2-yl)-3-phenyl-2,3-dihydroquinazolin-4(1H)-one] | 100% | –
